Measured values as given in patent publication US6855730B2, “3-methylidenyl-2-indolinone modulators of protein kinase” (Sugen, Inc., priority 1998, dated 2005).
Read-outs that look alike come from different tables or passages of the source.

What was measured:
[1] = tested on: endogenous FGF receptors in 3Tc7/EGFr cells; test: FGF-induced BrdU incorporation assay; assay type: cell-based; details: read-out: FGF-Induced BrdU Incorp. IC50
Description: The cellular/catalytic assays described herein are performed in an ELISA format. The general procedure is as follows: a compound is introduced to cells expressing the test kinase, either naturally or recombinantly, for a selected period of time after which, if the test kinase is a receptor, a ligand known to activate the receptor is added. The cells are lysed and the lysate is transferred to the wells of an ELISA plate previously coated with a specific antibody recognizing the substrate of the enzymatic phosphorylation reaction. Non-substrate components of the cell lysate are washed away and the amount of phosphorylation on the substrate is detected with an antibody specifically recognizing phosphotyrosine compared with control cells that were not contacted with a test compound. The cellular/biologic assays described herein measure the amount of DNA made in response to activation of a test kinase, which is a general measure of a proliferative response. The general procedure for this assay is as follows: a compound is introduced to cells expressing the test kinase, either naturally or recombinantly, for a selected period of time after which, if the test kinase is a receptor, a ligand known to activate the receptor is added. After incubation at least overnight, a DNA labeling reagent such as Bromodeoxyuridine (BrdU) or 3H-thymidine is added. The amount of labeled DNA is detected with either an anti-BrdU antibody or by measuring radioactivity and is compared to control cells not contacted with a test compound.
FGF-Induced BrdU incorporation Assay
This assay measures FGF-induced DNA synthesis in 3Tc7/EGFr cells that express endogenous FGF receptors.
Materials and Reagents: • 1. FGF: human FGF2/bFGF (Gibco BRL, No. 13256-029). • 2. BrdU Labeling reagent, (10 mM PBS (pH 7.4), Boehringer Mannheim Cat No. 1 647 229). • 3. Fixdenat fixation solution (Boehringer Mannheim Cat No. 1 647 229). • 4. Anti-BrdU-POD (mouse monoclonal antibody conjugated with peroxidase, Boehringer Mannheim Cat. No. 1 647 229). • 5. TMB (tetramethylbenzidine, Boehringer Mannheim Cat. No. 1 647 229). • 6. PBS washing solution, pH 7.4 (Sugen, Inc.). • 7. Albumin, bovine (BSA), fraction V powder (Sigma Chemical Co., Cat. No. A-8551)
Procedure • 1. 3T3 engineered cell line: 3T3c7/EGFr. • 2. Cells are seeded at 8,000 cells/well in DMEM, 10% CS and 2 mM Gln in a 96-well plate. Incubate 24 hours at 37° C. in 5% CO2. • 3. After 24 hours, wash cells with PBS then serum starve in serum free medium (0% DMEM, 0.1% BSA) for 24 hours. • 4. Add ligand (FGF2 (1.5 nM in DMEM with 0.1% BSA) and test compound simultaneously. Negative control wells receive serum free DMEM with 0.1% BSA only, positive control wells receive FGF2 ligand but no test compound. Test compounds are prepared in serum-free DMEM with ligand in a 96-well plate and serially diluted to make seven (7) test concentrations. • 5. After 20 hours, add diluted BrdU labeling reagent (1:100 BrdU:DMEM, 0.1% BSA, final concentration is 10 μM) to the cells and incubate for 1.5 hours. • 6. Decant medium. Remove traces of material with paper towel. Add FixDenat (50 μl/well) and incubate at room temperature for 45 minutes on a plate shaker. • 7. Remove Fixdenat solution. Add blocking solution (5% dehydrated milk in PBS (200 μl/well)) and incubate for 30 minutes at room temperature on a plate shaker. • 8. Decant blocking solution, wash wells once with PBS. Add anti-BrdU-POD solution (1:100 dilution in PBS, 0.1% BSA), incubate for 90 minutes at room temperature on a plate shaker. • 9. Decant antibody conjugate, rinse wells 5 times with PBS. Dry plate by inverting on paper towel and tapping. • 10. Add TMB solution (100 μl/well), incubate 20 minutes at room temperature on a plate shaker until color development is sufficient for photometric detection. • 11. Measure absorbance at 410 nm on a Dynatech ELISA plate reader using “Dual wavelength” mode with a filter at 490 nM. Biochemical EGFR Assay

[2] = tested on: HUV-EC-C cells (aFGF, FGF-R); test: cells; assay type: cell-based; details: Homo sapiens, HUVEC, read-out: HUVEC aFGF IC50

Row | Compound | IC50 [1] [µM] | IC50 ([2]; aFGF-stimulated) [µM] | IC50 [2] [µM]
1 | CN(C)CCCc1c(/C=C2\C(=O)Nc3ccccc32)[nH]c2c1CCCC2 [Example 198, 3-[3-(3-Dimethylaminopropyl)-4,5,6,7-tetrahydro-1H-indol-2-ylmethylene]-1,3-dihydroindol-2-one] | > 50 | – | –
2 | Cc1c[nH]c(/C=C2\C(=O)Nc3cccc(C)c32)c1CCC(=O)O [Example 218, 3-[2-(4-Methyl-2-oxo-1,2-dihydroindol-3-ylidenemethyl)-4-methyl-1H-pyrrol-3-yl]-propionic acid] | > 50 | – | –
3 | O=C(O)CCc1c(/C=C2\C(=O)Nc3ccc(Cl)cc32)[nH]c2c1CCCC2 [Example 191, 3-[2-(5-Chloro-2-oxo-1,2-dihydroindol-3-ylidenemethyl)-4,5,6,7-tetrahydro-1H-indol-3-yl]-propionic acid] | 23.6 | 0.25 | –
4 | COc1ccc2c(c1)NC(=O)/C2=C\c1[nH]c2c(c1CCC(=O)O)CCCC2 [Example 196, 3-[2-(6-Methoxy-2-oxo-1,2-dihydroindol-3-ylidenemethyl)-4,5,6,7-tetrahydro-1H-indol-3-yl]-propionic acid] | – | 1.6 | –
5 | Cc1c[nH]c(/C=C2\C(=O)Nc3ccc(Br)cc32)c1CCC(=O)O [Example 220, 3-[2-(5-Bromo-2-oxo-1,2-dihydroindol-3-ylidenemethyl)-4-methyl-1H-pyrrol-3-yl]-propionic acid] | > 50 | – | –
6 | CN(C)C(=O)CCc1c(/C=C2\C(=O)Nc3ccccc32)[nH]c2c1CCCC2 [Example 197, N,N-Dimethyl-3-[2-(2-oxo-1,2-dihydroindol-3-ylidenemethyl)-4,5,6,7-tetrahydro-1H-indol-3-yl]-propionamide] | > 50 | 202 | –
7 | Cc1c[nH]c(/C=C2\C(=O)Nc3ccccc32)c1CCC(=O)O [Example 215, 3-[4-Methyl-2-(2-oxo-1,2-dihydroindol-3-ylidenemethyl)-1H-pyrrol-3-yl]-propionic acid] | 25 | – | 1.1
8 | COc1ccc2c(c1)NC(=O)/C2=C\c1[nH]cc(C)c1CCC(=O)O [Example 217, 3-[2-(6-Methoxy-2-oxo-1,2-dihydroindol-3-ylidenemethyl)-4-methyl-1H-pyrrol-3-yl]-propionic acid] | > 50 | – | –

The next lines start with results.

Row | IC50 [1] [µM] | IC50 ([2]; aFGF-stimulated) [µM] | Compound | IC50 [2] [µM]
9 | > 50 | – | O=C1Nc2ccccc2/C1=C/c1[nH]c2c(c1CCC(=O)N1CCOCC1)CCCC2 [Example 200, 3-[3-(3-Morpholin-4-yl-3-oxopropyl)-4,5,6,7-tetrahydro-1H-indol-2-ylmethylene]-1,3-dihydroindol-2-one] | –
10 | > 50 | 0.1 | NC(=O)CCc1c(/C=C2\C(=O)Nc3ccccc32)[nH]c2c1CCCC2 [Example 199, 3-[2-(2-Oxo-1,2-dihydroindol-3-ylidenemethyl)-4,5,6,7-tetrahydro-1H-indol-3-yl]-propionamide] | –
11 | > 50 | – | O=C(CCc1c(/C=C2\C(=O)Nc3ccccc32)[nH]c2c1CCCC2)NCCN1CCOCC1 [Example 202, N-(2-Morpholin-4-ylethyl)-3-[2-(2-oxo-1,2-dihydroindol-3-ylidenemethyl)-4,5,6,7-tetrahydro-1H-indol-3-yl]-propionamide] | –
12 | > 50 | 0.16 | CNC(=O)CCc1c(/C=C2\C(=O)Nc3ccccc32)[nH]c2c1CCCC2 [Example 201, N-Methyl-3-[2-(2-oxo-1,2-dihydroindol-3-ylidenemethyl)-4,5,6,7-tetrahydro-1H-indol-3-yl]-propionamide] | –
